Reference: article PMC12494831, “Discovery of new pyridine 3-carboxylic acid-based pharmacophores as dual anti-inflammatory and anti-hyperglycemic agents” (Scientific Reports, 2025)

Key:
[1] = ABTS cation radical scavenging (734 nm); conditions: for IC50: read-out: ABTS IC50±SD
Method: (§1) The experimental method principle relies on the degradation of the purple color of the DPPH radical and the blue color reduction of the ABTS cation radical. This is due to consuming the electron or hydrogen radical from the antioxidant (A-H). Both assays were measured at 517 nm and 734 nm, respectively. The distinction of color changes illustrates the potential scavenging activity of the inhibitor molecules in terms of hydrogen-donating proficiency. From this, we can conclude the anti-oxidant efficacy.
In brief, 7.0 mM ABTS in H2O and 2.5 mM potassium persulfate (1:1) were shaken well to generate ABTS cation radicals and kept in the dark at RT for 15–20 h before it is used for the experiment. After, the radical was mixed with the synthesized molecules at different concentrations (20 µM to 100 µM). The resultant solution was measured for absorbance at 734 nm. Ascorbic acid is the positive control for this experiment.1 [drawing 1]

α-amylase (EC.3.2.1.1) = target: T1, α-amylase (EC.3.2.1.1) (Homo sapiens, UniProt P04746); experiment: In vitro α-amylase inhibition (starch/DNS, 540 nm); type: biochemical
T1 sequence (P04746 16-511): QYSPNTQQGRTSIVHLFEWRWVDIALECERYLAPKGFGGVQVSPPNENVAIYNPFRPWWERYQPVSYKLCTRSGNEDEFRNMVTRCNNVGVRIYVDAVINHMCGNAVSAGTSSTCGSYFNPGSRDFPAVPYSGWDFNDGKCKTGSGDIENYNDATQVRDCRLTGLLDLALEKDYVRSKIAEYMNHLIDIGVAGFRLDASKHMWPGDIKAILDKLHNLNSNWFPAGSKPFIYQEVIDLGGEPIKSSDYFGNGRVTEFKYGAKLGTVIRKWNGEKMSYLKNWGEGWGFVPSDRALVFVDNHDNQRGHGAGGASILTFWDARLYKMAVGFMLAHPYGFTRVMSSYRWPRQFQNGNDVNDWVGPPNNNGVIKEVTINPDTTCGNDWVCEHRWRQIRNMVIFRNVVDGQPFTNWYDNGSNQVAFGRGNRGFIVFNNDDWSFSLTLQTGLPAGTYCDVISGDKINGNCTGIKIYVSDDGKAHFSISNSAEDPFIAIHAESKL
Method: α-Amylase enzyme and other chemical reagents are used for enzyme inhibitory activity. The characterized compounds are diluted in an analytical grad solvent (DMSO) system at 1 mg/mL solution concentration. The activity reaction of the synthesized analogues on the enzyme was treated at final concentrations of 2 to 10 µg. In the interaction between enzyme and compounds, 10 min incubation was maintained before the inhibitory activity started. The enzyme-receptor inhibition efficiency was calculated and compared with the positive control.
Sodium phosphate buffer 0.2 mM (pH 6.9 with 6 × 10^− 4 M NaCl) in 500 µL enzyme solution (0.5 mg/mL) was taken and incubated with test samples (2–10 µg/mL) at room temperature for 10 min. A starch (1%) solution of 500 µL with phosphate buffer was added to all test inhibitor samples; further, the tubes were incubated for 10 min at 28 °C. The reaction test tubes were incubated for another 5 min in the water bath (100 °C) after the addition of the color reagent dinitro salicylic acid and cooled at room temperature until reached. Finally, 10 mL of distilled water was mixed with each test tube, and the colored mixture was measured at a fixed wavelength of 540 nm. The absorbance without sample solution (blank) and control (buffer and standard drug sample) was measured at 540 nm. The α-amylase inhibition efficiency was validated using the following equation:2 [drawing 2]

[2] = system: RAW macrophage cells (RAW 264.7); experiment: MTT cell viability assay; type: cell-based; conditions: for MTT assay Average OD: control average OD 0.924
Method: (§2) The toxicity of the molecule was investigated by the MTT cell viability assay employing RAW macrophage cells. For this study, two lead compounds, 2b and 2e, were screened based on the in vitro results. […] (The OD values in Tables S6 and S7)
(§3) The MTT ((3-(4,5-Dimethylthiazol-2-yl)-2,5-Diphenyltetrazolium Bromide)) assay was employed to determine viability for the synthesized potent compounds 2b and 2e; the cell viability results portray the compounds’ cytotoxicity. The assay was conducted on RAW macrophage cells (RAW 264.7) with various dilutions of 2b and 2e (10, 20, 30, 40, and 50 µM). The results were confirmed with a control.

MTT cell viability assay = type: cell-based; conditions: mouse, RAW 264.7 macrophage cells, control 100
Method: as §2, §3

[3] = DPPH radical scavenging (517 nm); conditions: for IC50: read-out: DPPH IC50±SD
Method: as §1
Methanolic DPPH solution (0.15 mM) was prepared, and 1.0 mL of DPPH solution was mixed with 3.0 mL of synthesized molecules at different concentrations (20 µM to 100 µM). The mixture was constantly swirled and stored RT for 30 min, followed by absorbance measurement at 517 nm.

human RBC = experiment: Anti-inflammatory activity: hypotonic solution-induced human RBC hemolysis (560 nm); type: cell-based; conditions: for IC50: induced human RBC hemolysis, read-out: Inflammatory IC50±SD
Method: All synthesized compounds are validated in human RBC (blood sample); the blood sample was collected from a healthy volunteer in an EDTA tube. The EDTA tube further proceeded with centrifugation at 3000 rpm for 30 min. A supernatant (which contains plasma and leucocytes) solution was isolated, and the obtained RBC (red blood cells) was further treated with Alsever’s reagent. Alsever’s reagent was prepared as follows: sodium citrate (0.8 g, 2.6 mmol), dextrose (2 g, 11.0 mmol), citric acid (0.050 g, […]), and sodium chloride (0.42 g, 7.0 mmol) were solubilized in 100 mL of distilled water. The above mixture was centrifuged for 30 min at 3000 rpm. Then, colloidal blood cells were separated, carefully transferred, and washed with 0.85% of the isosaline solution; this process continued until a clear solution appeared. Employing coagulated RBC and generated human erythrocyte hemolysis, the anti-inflammatory activity and potential of the synthesized entities were evaluated. The tested compounds are prepared at different concentrations for the inhibition activity of inflammation, along with 100 µL of a purified RBC sample utilized. All characterized samples were followed by adding 5.0 mL of trisodium phosphate (10 mM) and 5.0 mL of sodium chloride (5.0 mM) buffer solutions. After the addition of the above mixtures, the test samples are incubated for 15 min at room temperature with RBC and hypotonic mixtures. After incubation, the mixture was centrifuged at 3000 rpm for 15 min. The final supernatant liquid solution was measured at 560 nm using a UV-visible spectrophotometer.3 [drawing 3]

COC(=O)/C=C/c1ccc(OC(=O)c2cccnc2)c(OC)c1 [Compound 2b, 2-Methoxy-4-(3-methoxy-3-oxoprop-1-en-1-yl) phenyl nicotinate]
ABTS Inhibition % ([1]; 20 µM): 59.6%
ABTS Inhibition % ([1]; 40 µM): 60.8%
ABTS Inhibition % ([1]; 60 µM): 60.9%
ABTS Inhibition % ([1]; 80 µM): 61%
ABTS Inhibition % ([1]; 100 µM): 61.4%
IC50 [1]: 19.9 ± 0.25 µM
α-Amylase Inhibition % (α-amylase (EC.3.2.1.1); 2 µg): 80.52%
α-Amylase Inhibition % (α-amylase (EC.3.2.1.1); 4 µg): 80.38%
α-Amylase Inhibition % (α-amylase (EC.3.2.1.1); 6 µg): 77.01%
α-Amylase Inhibition % (α-amylase (EC.3.2.1.1); 8 µg): 69.1%
α-Amylase Inhibition % (α-amylase (EC.3.2.1.1); 10 µg): 54.9%
IC50 (α-amylase (EC.3.2.1.1); test concentrations 2-10 µg, read-out: α-Amylase IC50±SD (converted)): 4.37 µM
MTT assay Triplicate values OD1 ([2]; 10 µM): 0.790
MTT assay Triplicate values OD2 ([2]; 10 µM): 0.792
MTT assay Triplicate values OD3 ([2]; 10 µM): 0.785
MTT assay Average OD ([2]; 10 µM): 0.789
MTT assay Triplicate values OD1 ([2]; 20 µM): 0.719
MTT assay Triplicate values OD2 ([2]; 20 µM): 0.712
MTT assay Triplicate values OD3 ([2]; 20 µM): 0.711
MTT assay Average OD ([2]; 20 µM): 0.714
MTT assay Triplicate values OD1 ([2]; 30 µM): 0.634
MTT assay Triplicate values OD2 ([2]; 30 µM): 0.629
MTT assay Triplicate values OD3 ([2]; 30 µM): 0.636
MTT assay Average OD ([2]; 30 µM): 0.633
MTT assay Triplicate values OD1 ([2]; 40 µM): 0.542
MTT assay Triplicate values OD2 ([2]; 40 µM): 0.541
MTT assay Triplicate values OD3 ([2]; 40 µM): 0.546
MTT assay Average OD ([2]; 40 µM): 0.543
MTT assay Triplicate values OD1 ([2]; 50 µM): 0.418
MTT assay Triplicate values OD2 ([2]; 50 µM): 0.416
MTT assay Triplicate values OD3 ([2]; 50 µM): 0.423
MTT assay Average OD ([2]; 50 µM): 0.419
Toxicity, outcome of the MTT cell viability assay (in words) ([2]; RAW macrophage cells): viable for the cell line
viability at 10 µM (MTT cell viability assay; 10 µM): 85.4%
viability at 20 µM (MTT cell viability assay; 20 µM): 77.4%
viability at 30 µM (MTT cell viability assay; 30 µM): 68.5%
viability at 40 µM (MTT cell viability assay; 40 µM): 58.8%
viability at 50 µM (MTT cell viability assay; 50 µM): 45.3%
DPPH Inhibition % ([3]; 20 µM): 66.2%
DPPH Inhibition % ([3]; 40 µM): 86.32%
DPPH Inhibition % ([3]; 60 µM): 87.6%
DPPH Inhibition % ([3]; 80 µM): 88%
DPPH Inhibition % ([3]; 100 µM): 88.4%
IC50 [3]: 15.63 ± 0.13 µM
inhibition at 20 µM (human RBC): 60%
inhibition at 40 µM (human RBC): 69.9%
inhibition at 60 µM (human RBC): 71%
inhibition at 80 µM (human RBC): 76%
inhibition at 100 µM (human RBC): 85.8%
IC50 (human RBC): 18.41 ± 0.13 µM

COC(=O)/C=C/c1ccc(OC)c(OC(=O)c2cccnc2)c1 [Compound 2c, 2-Methoxy-5-(3-methoxy-3-oxoprop-1-en-1-yl) phenyl nicotinate]
ABTS Inhibition % ([1]; 20 µM): 58%
ABTS Inhibition % ([1]; 40 µM): 59.7%
ABTS Inhibition % ([1]; 60 µM): 59.8%
ABTS Inhibition % ([1]; 80 µM): 60%
ABTS Inhibition % ([1]; 100 µM): 60%
IC50 [1]: 20.57 ± 0.13 µM
MTT assay Triplicate values OD1 ([2]; 10 µM): 0.824
MTT assay Triplicate values OD2 ([2]; 10 µM): 0.826
MTT assay Triplicate values OD3 ([2]; 10 µM): 0.819
MTT assay Average OD ([2]; 10 µM): 0.823
MTT assay Triplicate values OD1 ([2]; 20 µM): 0.754
MTT assay Triplicate values OD2 ([2]; 20 µM): 0.753
MTT assay Triplicate values OD3 ([2]; 20 µM): 0.758
MTT assay Average OD ([2]; 20 µM): 0.755
MTT assay Triplicate values OD1 ([2]; 30 µM): 0.689
MTT assay Triplicate values OD2 ([2]; 30 µM): 0.695
MTT assay Triplicate values OD3 ([2]; 30 µM): 0.692
MTT assay Average OD ([2]; 30 µM): 0.692
MTT assay Triplicate values OD1 ([2]; 40 µM): 0.596
MTT assay Triplicate values OD2 ([2]; 40 µM): 0.604
MTT assay Triplicate values OD3 ([2]; 40 µM): 0.606
MTT assay Average OD ([2]; 40 µM): 0.602
MTT assay Triplicate values OD1 ([2]; 50 µM): 0.520
MTT assay Triplicate values OD2 ([2]; 50 µM): 0.525
MTT assay Triplicate values OD3 ([2]; 50 µM): 0.518
MTT assay Average OD ([2]; 50 µM): 0.521
DPPH Inhibition % ([3]; 20 µM): 32%
DPPH Inhibition % ([3]; 40 µM): 34.9%
DPPH Inhibition % ([3]; 60 µM): 36.1%
DPPH Inhibition % ([3]; 80 µM): 48%
DPPH Inhibition % ([3]; 100 µM): 51.9%
IC50 [3]: 93.69 ± 0.26 µM
inhibition at 20 µM (human RBC): 48%
inhibition at 40 µM (human RBC): 52.9%
inhibition at 60 µM (human RBC): 62.5%
inhibition at 80 µM (human RBC): 77%
inhibition at 100 µM (human RBC): 86%
IC50 (human RBC): 27.65 ± 0.2 µM
